Measured values reported in paper PMC6199744, “Development of Chemical Proteomics for the Folateome and Analysis of the Kinetoplastid Folateome” (ACS Infectious Diseases, 2018).
Where two headings read alike, the source gives them in different places.

How the values were obtained:
Format in all cases: binding
[1] = biological target: T1, HeLa cell extract proteins (Homo sapiens, UniProt O43747)
T1 construct: endogenous in cells; host or cells: HeLa cell extract
T1 sequence (O43747 1-822): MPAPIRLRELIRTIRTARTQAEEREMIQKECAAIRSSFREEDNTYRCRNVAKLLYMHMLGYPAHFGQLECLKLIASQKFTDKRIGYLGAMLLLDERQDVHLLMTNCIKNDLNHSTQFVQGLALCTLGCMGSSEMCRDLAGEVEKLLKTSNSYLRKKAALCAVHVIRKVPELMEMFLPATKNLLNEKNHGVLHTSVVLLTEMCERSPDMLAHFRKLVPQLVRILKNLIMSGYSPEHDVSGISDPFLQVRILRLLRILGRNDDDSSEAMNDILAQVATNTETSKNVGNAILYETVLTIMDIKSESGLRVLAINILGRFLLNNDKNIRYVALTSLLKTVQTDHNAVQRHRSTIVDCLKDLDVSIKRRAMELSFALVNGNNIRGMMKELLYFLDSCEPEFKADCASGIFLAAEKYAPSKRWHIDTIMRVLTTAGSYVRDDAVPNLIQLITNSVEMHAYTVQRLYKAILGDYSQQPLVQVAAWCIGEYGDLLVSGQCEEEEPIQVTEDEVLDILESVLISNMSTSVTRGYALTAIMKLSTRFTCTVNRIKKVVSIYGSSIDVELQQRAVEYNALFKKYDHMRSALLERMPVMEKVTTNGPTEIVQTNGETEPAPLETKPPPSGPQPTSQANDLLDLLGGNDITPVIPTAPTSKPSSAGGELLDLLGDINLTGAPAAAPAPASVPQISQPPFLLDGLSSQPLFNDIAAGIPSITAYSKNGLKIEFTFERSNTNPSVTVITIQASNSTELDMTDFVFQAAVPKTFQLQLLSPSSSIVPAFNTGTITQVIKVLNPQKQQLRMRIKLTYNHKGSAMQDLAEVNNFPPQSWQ

[2] = biological target: T2, HeLa cell extract proteins (Homo sapiens, UniProt P08238)
T2 construct: endogenous in cells; host or cells: HeLa cell extract
T2 sequence (P08238 whole entry): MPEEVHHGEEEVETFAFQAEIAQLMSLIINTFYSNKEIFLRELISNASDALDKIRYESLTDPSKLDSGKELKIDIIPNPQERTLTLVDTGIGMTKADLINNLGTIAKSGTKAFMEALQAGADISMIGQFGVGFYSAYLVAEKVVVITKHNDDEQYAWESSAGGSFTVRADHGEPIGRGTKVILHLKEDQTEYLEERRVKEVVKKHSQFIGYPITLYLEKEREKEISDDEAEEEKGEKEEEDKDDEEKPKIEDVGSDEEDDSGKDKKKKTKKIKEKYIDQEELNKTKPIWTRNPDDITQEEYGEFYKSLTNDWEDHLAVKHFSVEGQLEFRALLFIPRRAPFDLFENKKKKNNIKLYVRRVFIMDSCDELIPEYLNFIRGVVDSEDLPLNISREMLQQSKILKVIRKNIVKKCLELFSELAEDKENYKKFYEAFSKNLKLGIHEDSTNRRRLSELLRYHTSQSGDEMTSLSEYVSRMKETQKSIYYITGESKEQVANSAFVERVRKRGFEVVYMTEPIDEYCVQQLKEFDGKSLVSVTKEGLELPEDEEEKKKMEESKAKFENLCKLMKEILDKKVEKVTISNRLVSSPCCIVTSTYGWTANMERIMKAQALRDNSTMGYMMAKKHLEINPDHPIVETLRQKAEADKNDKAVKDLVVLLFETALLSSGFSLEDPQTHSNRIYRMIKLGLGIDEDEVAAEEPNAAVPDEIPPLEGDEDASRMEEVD

[3] = biological target: T3, HeLa cell extract proteins (Homo sapiens, UniProt P43362)
T3 construct: endogenous in cells; host or cells: HeLa cell extract
T3 sequence (P43362 1-315): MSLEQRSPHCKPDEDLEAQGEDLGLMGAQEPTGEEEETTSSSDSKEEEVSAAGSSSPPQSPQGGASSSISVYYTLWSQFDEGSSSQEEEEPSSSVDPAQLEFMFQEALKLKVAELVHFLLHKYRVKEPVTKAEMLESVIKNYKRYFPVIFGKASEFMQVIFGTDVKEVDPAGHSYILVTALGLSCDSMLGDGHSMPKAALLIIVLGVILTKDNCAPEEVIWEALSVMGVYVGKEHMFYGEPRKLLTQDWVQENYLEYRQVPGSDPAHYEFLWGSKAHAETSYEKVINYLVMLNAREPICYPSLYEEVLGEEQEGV

[4] = biological target: T4, HeLa cell extract proteins (Homo sapiens, UniProt P46977)
T4 construct: endogenous in cells; host or cells: HeLa cell extract
T4 sequence (P46977 1-705): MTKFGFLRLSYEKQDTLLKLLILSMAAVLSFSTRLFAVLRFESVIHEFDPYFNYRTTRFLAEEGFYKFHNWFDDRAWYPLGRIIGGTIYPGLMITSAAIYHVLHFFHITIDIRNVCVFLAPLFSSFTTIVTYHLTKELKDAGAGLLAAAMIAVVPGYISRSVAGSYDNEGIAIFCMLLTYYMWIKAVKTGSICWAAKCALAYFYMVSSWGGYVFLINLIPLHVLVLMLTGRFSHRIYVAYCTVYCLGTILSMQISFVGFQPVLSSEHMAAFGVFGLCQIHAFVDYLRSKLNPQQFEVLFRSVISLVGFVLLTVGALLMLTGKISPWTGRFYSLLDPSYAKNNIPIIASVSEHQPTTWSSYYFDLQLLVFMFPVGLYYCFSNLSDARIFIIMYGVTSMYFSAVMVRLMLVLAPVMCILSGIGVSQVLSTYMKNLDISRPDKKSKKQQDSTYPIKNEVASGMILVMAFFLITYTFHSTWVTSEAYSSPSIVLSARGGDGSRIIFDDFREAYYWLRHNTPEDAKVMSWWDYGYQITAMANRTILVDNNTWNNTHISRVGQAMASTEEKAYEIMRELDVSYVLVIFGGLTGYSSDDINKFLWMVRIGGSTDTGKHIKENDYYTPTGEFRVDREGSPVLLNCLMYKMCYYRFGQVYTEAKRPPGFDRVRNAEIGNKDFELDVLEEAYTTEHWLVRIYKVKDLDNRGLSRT

[5] = biological target: T5, HeLa cell extract proteins (Homo sapiens, UniProt Q03393)
T5 construct: endogenous in cells; host or cells: HeLa cell extract
T5 sequence (Q03393 1-145): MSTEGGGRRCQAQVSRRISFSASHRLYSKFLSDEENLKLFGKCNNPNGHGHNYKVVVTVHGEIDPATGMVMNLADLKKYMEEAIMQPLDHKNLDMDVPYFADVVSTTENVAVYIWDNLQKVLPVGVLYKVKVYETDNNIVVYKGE

[6] = biological target: T6, HeLa cell extract proteins (Homo sapiens, UniProt Q96BY9)
T6 construct: endogenous in cells; host or cells: HeLa cell extract
T6 sequence (Q96BY9 31-339): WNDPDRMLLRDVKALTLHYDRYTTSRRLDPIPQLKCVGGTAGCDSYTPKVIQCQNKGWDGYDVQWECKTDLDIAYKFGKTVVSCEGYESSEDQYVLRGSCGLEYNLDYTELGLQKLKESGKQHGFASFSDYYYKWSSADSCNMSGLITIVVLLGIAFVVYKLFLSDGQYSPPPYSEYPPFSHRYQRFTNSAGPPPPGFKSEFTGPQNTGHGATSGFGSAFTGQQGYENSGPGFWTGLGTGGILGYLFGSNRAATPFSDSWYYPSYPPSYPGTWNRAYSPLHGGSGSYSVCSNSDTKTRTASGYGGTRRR

[7] = biological target: T7, HeLa cell extract proteins (Homo sapiens, UniProt Q9HB07)
T7 construct: endogenous in cells; host or cells: HeLa cell extract
T7 sequence (Q9HB07 48-376): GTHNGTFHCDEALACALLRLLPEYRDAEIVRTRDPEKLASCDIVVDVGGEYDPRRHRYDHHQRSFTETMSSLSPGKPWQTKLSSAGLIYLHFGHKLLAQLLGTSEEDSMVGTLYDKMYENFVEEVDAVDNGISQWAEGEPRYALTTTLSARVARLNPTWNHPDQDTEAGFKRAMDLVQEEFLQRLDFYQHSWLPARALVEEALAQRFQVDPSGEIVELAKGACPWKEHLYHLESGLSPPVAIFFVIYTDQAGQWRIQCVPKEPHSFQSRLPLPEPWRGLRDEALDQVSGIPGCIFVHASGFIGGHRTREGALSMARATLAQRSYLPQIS

[8] = HeLa, protein HSP90AB1 (HEAT SHOCK PROTEIN HSP 90-BETA.)
[9] = captured protein C12ORF10, HeLa
[10] = HeLa, captured protein C12ORF10
[11] = HeLa, protein TMEM66 (TRANSMEMBRANE PROTEIN 66 PRECURSOR)

SMILES | fold changes relative to vehicle control ([1]; protein AP1G1, HeLa) | fold changes relative to vehicle control [2, 8] [fold] | fold changes relative to vehicle control ([3]; protein MAGEA9, HeLa) | fold changes relative to vehicle control ([4]; HeLa, protein STT3A) | fold changes relative to vehicle control ([5]; captured protein PTS, HeLa) | fold changes relative to vehicle control ([6]; protein TMEM66, HeLa) | fold changes relative to vehicle control [7, 9] | fold changes relative to vehicle control ([1]; HeLa, protein AP1G1) | fold changes relative to vehicle control ([2]; HeLa, protein HSP90AB1) | fold changes relative to vehicle control ([3]; HeLa, protein MAGEA9) | fold changes relative to vehicle control ([5]; protein PTS, HeLa) | fold changes relative to vehicle control [7, 10] | further results
Nc1nc2cccc(-c3ccccc3)c2n1Cc1ccc(Cl)c(Cl)c1 [compound 3] | 0.97 | 1.06 | 0.92 | 1.36 | 1.1 | 0.98 | 1.04 |  |  |  |  |  | 
Nc1nc2[nH]cc(CCc3ccc(C(=O)N[C@@H](CCC(=O)O)C(=O)O)cc3)c2c(=O)[nH]1 [PTX, pemetrexed] |  |  |  |  |  |  |  |  |  |  |  |  | fold changes relative to vehicle control [1]: 1.09; fold changes relative to vehicle control [2]: 1.14; fold changes relative to vehicle control [3]: 0.82; fold changes relative to vehicle control [4]: 0.89; fold changes relative to vehicle control [5]: 0.23; fold changes relative to vehicle control [6]: 0.92; fold changes relative to vehicle control [7]: 0.33
Nc1nc2c(c(=O)[nH]1)N(C=O)C(CNc1ccc(C(=O)N[C@@H](CCC(=O)O)C(=O)O)cc1)CN2 (stereo partly shown) [LEU, leucovorin] |  |  |  | 1.1 |  |  |  | 1.1 | 1.08 | 0.95 | 0.83 | 1.08 | fold changes relative to vehicle control ([6]; HeLa, protein TMEM66 (TRA[…] 66 PRECURSOR)): 1.06
CCCCCCOc1cccc(Cc2cnc(N)nc2N)c1 [compound 2] | 1.51 | 2.33 | 1.24 | 1.08 | 1.01 | 1.29 | 1.06 |  |  |  |  |  | 
NCCOCCOCC(=O)Nc1nc2ncc(CNc3ccc(C(=O)NC(CCC(=O)O)C(=O)O)cc3)nc2c(=O)[nH]1 (stereo not shown) [compound 6] |  |  |  | 0.96 |  |  |  | 1.17 | 1.36 | 1.04 | 0.39 | 0.78 | fold changes relative to vehicle control [6, 11]: 0.85
CCCCCCOc1ccc(Cc2cnc(N)nc2N)cc1 [compound 1] | 1.19 | 1.5 | 0.78 | 0.96 | 0.72 | 1.16 | 1.05 |  |  |  |  |  | 
NCCCNc1ccc(C(=O)NC(CCC(=O)O)C(=O)O)cc1 (stereo not shown) [compound 7] |  |  |  | 0.93 |  |  |  | 1.17 | 0.98 | 1 | 1.03 | 1.12 | fold changes relative to vehicle control [6, 11]: 0.87
